According to patent US9249125B2, “Pyrazole derivatives as p38 MAP inhibitors” (RESPIVERT LIMITED, priority 2012, dated 2016):

Assays:
p38 MAPKα [1] = target: T1, p38 MAPKα (Homo sapiens (Human), UniProt Q16539); experiment: Enzyme binding assay (Kinomescan) p38 MAPKα; conditions: read-out: % Inhibition for kinase binding at 500 nM p38 MAPKα
Procedure: (§1) The kinase enzyme binding activities of compounds disclosed herein were determined using a proprietary assay which measures active site-directed competition binding to an immobilized ligand (Fabian, M. A. et al., Nature Biotechnol., 2005, 23:329-336). These assays were conducted by DiscoverX (formerly Ambit; San Diego, Calif.). The percentage inhibition produced by incubation with a test compound is calculated relative to the non-inhibited control.

HCK = HCK (Homo sapiens (Human), UniProt P08631); experiment: Enzyme binding assay (Kinomescan) HCK; conditions: read-out: % Inhibition for kinase binding at 500 nM HCK
Procedure: as §1

Syk [2] = target: T2, Syk (Homo sapiens (Human), UniProt P43405); experiment: Enzyme binding assay (Kinomescan) Syk; conditions: read-out: % Inhibition for kinase binding at 500 nM Syk
Procedure: as §1

B-Raf = B-Raf (Homo sapiens (Human), UniProt P15056); experiment: Enzyme binding assay (Kinomescan) B-Raf; conditions: read-out: % Inhibition for kinase binding at 500 nM B-Raf
Procedure: (§2) These assays were conducted by DiscoverX (formerly Ambit; San Diego, Calif.). The percentage inhibition produced by incubation with a test compound is calculated relative to the non-inhibited control.

GSK3α [3] = target: T3, GSK3α (Homo sapiens (Human), UniProt P49840); experiment: Enzyme binding assay (Kinomescan) GSK3α; conditions: read-out: % Inhibition for kinase binding at 500 nM GSK3α
Procedure: as §1

[4] = tested on: LPS-induced TNFα release in d-U937 cells; experiment: LPS-induced TNFα release in d-U937 cells; assay type: cell-based; conditions: Homo sapiens, dU937, relative to 10 μg/mL BIRB796, read-out: LPS Induced Release of Cytokine in d-937 Cells TNFα REC50
How it was run: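 First, U937 monocytes undergo PMA treatment (100 ng/mL) for 48 to 72 hr to become macrophage-type. Next, compound at final concentrations is added for 2 hr, followed by LPS at 0.1 μg/mL for 4 hr. Finally, cytokines in the supernatant are quantified by ELISA against vehicle-treated cells.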

[5] = tested on: Poly I:C-induced ICAM-1 expression in BEAS2B cells; experiment: Poly I:C-induced ICAM-1 expression in BEAS2B cells; assay type: cell-based; conditions: Homo sapiens, BEAS-2B, read-out: Poly IC induced ICAM1 in BEAS2B IC50
How it was run: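 BEAS2B human bronchial epithelial cells pre-incubated with compound for 2 hr, then transfected with 1 μg/mL poly I:C plus Oligofectamine. At 18 hr, surface ICAM-1 measured by cell-based ELISA (HRP, OD450–655). Signal corrected for cell number by crystal violet OD595.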

d-U937 cells = experiment: Cell viability: MTT assay; assay type: cell-based, human; conditions: 1 μg/mL
How it was run: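 Differentiated U937 cells were exposed to compound at 1 or 10 μg/mL either 4 h in 5% FCS RPMI1640 or 24 h in 10% FCS RPMI1640, then given MTT for 1 h, DMSO-solubilised and read at 550 nm. Percent viability loss versus 0.5% DMSO vehicle; apparent gains appear negative.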

[6] = tested on: LPS-induced airways neutrophilia in mice; experiment: LPS-induced neutrophil accumulation in mice; assay type: in vivo; conditions: Test Substance at 0.2 mg/mL, intra tracheal, dosed 8 hr pre-LPS challenge
Procedure: Non-fasted Balb/c mice are dosed by the intra tracheal route with either vehicle, or the test substance at the indicated times (within the range 2-8 hr) before stimulation of the inflammatory response by application of an LPS challenge. At T=0, mice are placed into an exposure chamber and exposed to LPS (7.0 mL, 0.5 mg/mL solution in PBS) for 30 min). After a further 8 hr the animals are anesthetized, their tracheas cannulated and BALF extracted by infusing and then withdrawing from their lungs 1.0 mL of PBS via the tracheal catheter. Total and differential white cell counts in the BALF samples are measured using a Neubaur haemocytometer. Cytospin smears of the BALF samples are prepared by centrifugation at 200 rpm for 5 min at RT and stained using a DiffQuik stain system (Dade Behring). Cells are counted using oil immersion microscopy. Data for neutrophil numbers in BAL are shown as mean±S.E.M. (standard error of the mean). The percentage inhibition of neutrophil accumulation is calculated for each treatment relative to vehicle treatment.

p38 MAPKα [7] = target: T1, p38 MAPKα; experiment: p38 MAPKα enzyme inhibition (FRET, Z-LYTE); assay type: biochemical
cSrc = cSrc (Homo sapiens (Human), UniProt P12931); experiment: c-Src enzyme inhibition (FRET, Z-LYTE); assay type: biochemical
How it was run: (§3)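 Z-LYTE FRET kinase assay: enzyme (3000 or 2000 ng/mL stock, respectively) preincubated 2 h at RT with compound (4–0.004 μg/mL stocks), then FRET peptide plus ATP (800 μM stock for c-Src, 60 μM for Syk) added for 1 h. Protease development 1 h; phosphorylation from coumarin/fluorescein emission ratio.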

Syk [8] = target: T2, Syk; experiment: Syk enzyme inhibition (FRET, Z-LYTE); assay type: biochemical
How it was run: as §3

GSK3α [9] = target: T3, GSK3α; experiment: GSK 3α enzyme inhibition (FRET, Z-LYTE); assay type: biochemical
How it was run: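 GSK3α (500 ng/mL stock) was preincubated 2 hr at RT with compound (4 to 0.004 μg/mL stocks), then FRET peptide (8 μM stock) and ATP (40 μM stock) added for 1 hr. Protease development for 1 hr cleaved unphosphorylated peptide; coumarin/fluorescein emission ratio reported phosphorylation.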

[10] = tested on: LPS-induced IL-8 release in d-U937 cells; experiment: LPS-induced IL-8 release in d-U937 cells; assay type: cell-based; conditions: Homo sapiens, dU937, read-out: LPS Induced Release of Cytokine in d-937 Cells IL-8 IC50
How it was run: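 PMA-differentiated (100 ng/mL, 48–72 hr) U937 cells pre-incubated with compound 2 hr, then stimulated with LPS (0.1 μg/mL, E. coli O111:B4) for 4 hr. Supernatant TNFα and IL-8 measured by sandwich ELISA; inhibition versus vehicle control, REC50 from concentration-response curve.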

PBMC cells = experiment: Cell mitosis assay; assay type: cell-based, human
Procedure: Peripheral blood mononucleocytes (PBMCs) from healthy subjects are separated from whole blood (Quintiles, London, UK) using a density gradient (Histopaque-1077, Sigma-Aldrich, Poole, UK). The PBMCs (3 million cells per sample) are subsequently treated with 2% PHA (Sigma-Aldrich, Poole, UK) for 48 hr, followed by a 20 hr exposure to varying concentrations of test compounds. At 2 hr before collection, PBMCs are treated with demecolcine (0.1 μg/mL) (Invitrogen, Paisley, UK,) to arrest cells in metaphase. To observe mitotic cells, PBMCs are permeabilised and fixed by adding Intraprep (50 μL) (Beckman Coulter, France), and stained with anti-phospho-histone 3 (0.26 ng/L) (#9701; Cell Signalling, Danvers, Mass.) and propidium iodide (1 mg/mL) (Sigma-Aldrich, Poole, UK,) as previously described (Muehlbauer P. A. and Schuler M. J., Mutation Research, 2003, 537:117-130). Fluorescence is observed using an ATTUNE flow cytometer (Invitrogen, Paisley, UK), gating for lymphocytes.

p38 MAPKγ = p38 MAPKγ (Homo sapiens (Human), UniProt P53778); experiment: Enzyme binding assay (Kinomescan) p38 MAPKγ; conditions: read-out: % Inhibition for kinase binding at 500 nM p38 MAPKγ
Procedure: as §2

T3 sequence (P49840 whole entry): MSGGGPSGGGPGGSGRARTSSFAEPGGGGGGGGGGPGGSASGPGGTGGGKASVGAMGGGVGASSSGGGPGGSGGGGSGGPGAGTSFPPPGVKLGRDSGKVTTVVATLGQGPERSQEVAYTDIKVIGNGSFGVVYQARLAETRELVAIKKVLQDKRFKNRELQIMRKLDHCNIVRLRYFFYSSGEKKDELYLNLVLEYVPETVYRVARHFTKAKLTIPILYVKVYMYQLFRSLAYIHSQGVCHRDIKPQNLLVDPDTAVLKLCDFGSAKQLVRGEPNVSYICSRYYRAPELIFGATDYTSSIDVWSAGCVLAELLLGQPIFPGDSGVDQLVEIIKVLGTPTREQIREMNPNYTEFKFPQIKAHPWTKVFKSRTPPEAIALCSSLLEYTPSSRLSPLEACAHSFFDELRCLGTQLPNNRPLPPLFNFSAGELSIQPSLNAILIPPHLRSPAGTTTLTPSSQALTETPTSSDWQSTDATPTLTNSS
T1 sequence (Q16539 whole entry): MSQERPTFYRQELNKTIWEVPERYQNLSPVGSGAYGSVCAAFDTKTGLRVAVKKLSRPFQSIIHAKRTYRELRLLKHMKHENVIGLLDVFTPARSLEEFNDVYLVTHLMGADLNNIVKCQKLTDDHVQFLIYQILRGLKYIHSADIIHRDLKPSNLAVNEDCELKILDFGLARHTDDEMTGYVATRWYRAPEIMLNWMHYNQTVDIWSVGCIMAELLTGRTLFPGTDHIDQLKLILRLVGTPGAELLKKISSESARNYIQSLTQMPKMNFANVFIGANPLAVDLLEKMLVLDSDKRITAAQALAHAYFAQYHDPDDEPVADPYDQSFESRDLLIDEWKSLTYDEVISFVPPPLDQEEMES
HCK, sequence (P08631 22-526): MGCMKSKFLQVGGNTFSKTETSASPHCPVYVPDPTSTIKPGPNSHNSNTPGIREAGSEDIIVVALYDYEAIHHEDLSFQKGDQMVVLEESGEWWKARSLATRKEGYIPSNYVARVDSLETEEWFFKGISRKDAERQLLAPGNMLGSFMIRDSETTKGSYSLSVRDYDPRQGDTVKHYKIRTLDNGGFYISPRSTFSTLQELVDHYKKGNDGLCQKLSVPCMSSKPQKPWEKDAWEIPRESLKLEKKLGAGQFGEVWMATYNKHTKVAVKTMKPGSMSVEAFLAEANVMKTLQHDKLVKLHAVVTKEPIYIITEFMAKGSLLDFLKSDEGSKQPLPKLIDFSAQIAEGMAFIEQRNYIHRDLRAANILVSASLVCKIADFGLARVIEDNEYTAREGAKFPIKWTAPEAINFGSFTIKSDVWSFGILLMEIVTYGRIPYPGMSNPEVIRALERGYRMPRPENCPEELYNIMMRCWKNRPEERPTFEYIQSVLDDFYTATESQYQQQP
cSrc, sequence (P12931 whole entry, looked up): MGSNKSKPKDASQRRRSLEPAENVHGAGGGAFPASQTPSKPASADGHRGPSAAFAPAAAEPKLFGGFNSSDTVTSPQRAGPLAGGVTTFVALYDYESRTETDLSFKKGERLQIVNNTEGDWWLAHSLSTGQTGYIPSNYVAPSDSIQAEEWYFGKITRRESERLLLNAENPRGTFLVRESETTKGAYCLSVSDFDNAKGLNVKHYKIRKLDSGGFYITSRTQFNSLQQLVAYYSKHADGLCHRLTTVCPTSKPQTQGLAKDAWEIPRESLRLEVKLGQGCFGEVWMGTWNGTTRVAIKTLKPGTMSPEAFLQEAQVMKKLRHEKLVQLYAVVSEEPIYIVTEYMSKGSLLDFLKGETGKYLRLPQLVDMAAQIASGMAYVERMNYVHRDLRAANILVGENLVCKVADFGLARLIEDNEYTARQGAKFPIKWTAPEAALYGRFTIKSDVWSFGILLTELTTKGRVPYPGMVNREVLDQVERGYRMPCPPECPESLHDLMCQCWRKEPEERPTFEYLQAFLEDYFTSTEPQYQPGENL
p38 MAPKγ, sequence (P53778 whole entry): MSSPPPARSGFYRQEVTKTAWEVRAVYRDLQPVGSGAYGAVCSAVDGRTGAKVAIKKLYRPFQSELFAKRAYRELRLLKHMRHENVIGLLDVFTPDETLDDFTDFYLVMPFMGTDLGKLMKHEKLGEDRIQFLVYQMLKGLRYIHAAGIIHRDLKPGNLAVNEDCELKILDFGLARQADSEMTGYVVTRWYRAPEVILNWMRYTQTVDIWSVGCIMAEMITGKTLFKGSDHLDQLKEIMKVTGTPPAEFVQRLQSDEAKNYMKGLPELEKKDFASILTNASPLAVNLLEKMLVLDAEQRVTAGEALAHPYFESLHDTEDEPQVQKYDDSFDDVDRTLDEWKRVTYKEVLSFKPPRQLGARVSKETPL
B-Raf, sequence (P15056 whole entry): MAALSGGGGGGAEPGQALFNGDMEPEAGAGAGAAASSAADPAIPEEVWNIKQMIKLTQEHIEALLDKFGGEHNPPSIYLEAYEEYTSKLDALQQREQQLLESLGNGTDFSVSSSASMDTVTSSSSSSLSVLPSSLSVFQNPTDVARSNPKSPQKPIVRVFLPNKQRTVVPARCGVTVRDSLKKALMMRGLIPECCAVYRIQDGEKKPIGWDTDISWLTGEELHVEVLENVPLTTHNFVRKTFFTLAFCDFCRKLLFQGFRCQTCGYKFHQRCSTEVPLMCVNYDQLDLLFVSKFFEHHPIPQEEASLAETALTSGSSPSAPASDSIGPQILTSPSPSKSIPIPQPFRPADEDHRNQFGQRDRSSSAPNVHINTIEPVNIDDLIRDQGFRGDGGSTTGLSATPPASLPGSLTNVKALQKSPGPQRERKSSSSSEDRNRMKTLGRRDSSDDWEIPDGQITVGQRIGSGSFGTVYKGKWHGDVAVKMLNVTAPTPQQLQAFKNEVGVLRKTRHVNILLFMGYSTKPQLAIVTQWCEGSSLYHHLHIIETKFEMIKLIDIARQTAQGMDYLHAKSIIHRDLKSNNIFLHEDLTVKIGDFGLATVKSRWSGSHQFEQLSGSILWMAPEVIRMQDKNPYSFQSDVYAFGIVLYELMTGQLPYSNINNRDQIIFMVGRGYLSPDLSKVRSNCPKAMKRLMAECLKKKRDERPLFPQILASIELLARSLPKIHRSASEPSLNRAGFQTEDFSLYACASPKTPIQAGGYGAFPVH

| Compound | inhibition at 0.5 µM (p38 MAPKα [1]) | inhibition at 0.5 µM (HCK) | inhibition at 0.5 µM (Syk [2]) | inhibition at 0.5 µM (B-Raf) | inhibition at 0.5 µM (GSK3α [3]) | EC50 [4] | IC50 [5] | MTT Assay Cell viability at time point in d-U937 cells 4 h (d-U937 cells) | MTT Assay Cell viability at time point in d-U937 cells 24 h (d-U937 cells) | % Inhibition of neutrophil accumulation in BAL [6] | Neutrophil numbers in BAL (+/−SEM) [6] | IC50 (p38 MAPKα [7]) | IC50 (cSrc) | IC50 (Syk [8]) | IC50 (GSK3α [9]) | IC50 [10] | Mitosis Assay % inhibition in PBMC cells at 5 μg/mL (PBMC cells) | inhibition at 0.5 µM (p38 MAPKγ) |
| --- | --- | --- | --- | --- | --- | --- | --- | --- | --- | --- | --- | --- | --- | --- | --- | --- | --- | --- |
| COCC(=O)Nc1cc(Oc2ccc(NC(=O)Nc3cc(C(C)(C)C)nn3-c3ccc(C)cc3)c3ccccc23)ccn1 [Reference Compound, N-(4-(4-(3-(3-tert-butyl-1-p-tolyl-1H-pyrazol-5-yl)ureido)naphthalen-1-yloxy)pyridin-2-yl)-2-methoxyacetamide, reference compound] | 100% | 100% | 95% | 70% | 84% | 0.13 nM | 2.1 nM | −ve (−ve and +ve indicate that the value is below and above respectively, the no significant effect threshold, defined as 30% inhibition at 1 μg/mL at the time point indicated.) | +ve (−ve and +ve indicate that the value is below and above respectively, the no significant effect threshold, defined as 30% inhibition at 1 μg/mL at the time point indicated.) | 60% | 5.6 ± 0.86 ×10^5/mL |  |  |  |  |  |  |  |
| CC(C)(C)c1cc(NC(=O)Nc2ccc(Oc3ccnc(Nc4ccc5c(c4)NC(=O)C5)n3)c3ccccc23)n(-c2ccc(OCCN3CCOCC3)nc2)n1 [Example 90, 1-(3-(tert-butyl)-1-(6-(2-morpholinoethoxy)pyridin-3-yl)-1H-pyrazol-5-yl)-3-(4-((2-((2-oxoindolin-6-yl)amino)pyrimidin-4-yl)oxy)naphthalen-1-yl)urea] |  |  |  |  |  | 1.6 nM | 14.6 nM | −ve (−ve and +ve indicate that the value is below and above respectively, the no significant effect threshold, defined as 30% inhibition at 1 μg/mL at the time point indicated.) | −ve (−ve and +ve indicate that the value is below and above respectively, the no significant effect threshold, defined as 30% inhibition at 1 μg/mL at the time point indicated.) |  |  | 44 nM | < 1 nM | < 1 nM | 267 nM | 4.1 nM | 15.4% |  |
| CNC(=O)c1cc(Oc2ccc(NC(=O)Nc3ccc(Cl)c(C(F)(F)F)c3)cc2)ccn1 [Sorafenib] | 77% | 22% | 14% |  | 26% |  |  |  |  |  |  |  |  |  |  |  |  | 28% |
